Measured values published in paper PMC10298982, “Stability Characterization of the Novel Anti-Cancer HM-10/10 HDL-Mimetic Peptide” (International Journal of Molecular Sciences, 2023).
Like-named read-outs stand apart in the source and are kept apart here. Ends that are not written are not given here.

What was measured:
[1] = Stability in potassium phosphate buffers of pH 1.3, 5.5 and 7.4; type: physicochemical; settings: potassium phosphate buffer; for remaining at 1 h, 2 µM: read-out: % Remaining at 60 min
Method: The stability of HM-10/10 under varying pH conditions was determined by adding the compound to potassium phosphate buffers of pH 1.3 (acidic), 5.5 (slightly acidic), and 7.4 (physiological pH), with 7-Ethoxycoumarin used as a control article. Under acidic and slightly acidic conditions, the half-life of HM-10/10 could not be determined, as the percentage of HM-10/10 was higher at the end of the time course than at the beginning (Table 3, Figure 3). […] Samples were tested at 2 µM.
The instrument was equipped with an electrospray ionization source (600 °C) operated in the positive-ion mode.

[2] = Metabolic stability in Sprague-Dawley rat liver microsomes; type: in vitro ADME; settings: for CLint scaled: rat, microsomes, Sprague-Dawley rat liver microsomes 0.5 mg protein/mL, 2 μM
[3] = Metabolic stability in beagle dog liver microsomes; type: in vitro ADME; settings: for CLint scaled: dog, microsomes, Beagle dog liver microsomes 0.5 mg protein/mL, 2 μM
[4] = Metabolic stability in cynomolgus monkey liver microsomes; type: in vitro ADME; settings: for CLint scaled: cynomolgus monkey, microsomes, Cynomolgus monkey liver microsomes 0.5 mg protein/mL, 2 μM
[5] = Metabolic stability in cryopreserved human hepatocytes; type: in vitro ADME; settings: Human hepatocytes 0.5 million cells/mL; for CLint scaled: hepatocytes
CYP3A4 = CYP3A4 (Homo sapiens, UniProt P08684); test: CYP450 time-dependent inhibition, CYP3A4 (midazolam and testosterone substrates), pooled human liver microsomes; type: in vitro ADME
CYP2B6 = CYP2B6 induction (enzyme activity) in single-donor human hepatocytes; settings: for Fold Increase (Enzyme Activity) Mean: mean of three lots
Method: The transport medium was replaced with 200 μL of warm (37 °C) incubation medium (InVitroGRO HI, BioIVT Catalog No. Z99009) and the plate was placed in a humidified 5% carbon dioxide incubator at 37 °C for 24 h.
In addition, test article vehicle (PBS) was added to warm (37°C) InVitroGRO HI Medium in a 5:95 (v:v) ratio. […] The plates were removed from the incubator and the hepatocytes were prepared for the induction assay by replacing the cell culture medium with medium containing either the test article, a control inducer, or vehicle control (200 µL per well). The hepatocyte plates were returned to the cell culture incubator and incubated for 24 h.
On Day 3, induction was repeated following the same steps as described above for the previous day, and plates were returned to the cell culture incubator for an additional 24 h.
After aliquots were taken to measure test article stability, all the remaining medium from each well in the hepatocyte plate was removed, all wells were washed once using 200 μL of blank assay buffer, and then 100 μL of the 1000-fold diluted substrate solutions were added to the appropriate wells. The assay plate was returned to the humidified 5% carbon dioxide incubator at 37 °C for 1 h incubation.
At the end of the incubation time, 100 μL of mRNA lysis buffer was added to each well to stop the reaction. Fifty microliters of this reaction mixture were transferred into a new plate and quenched with 200 μL of ice-cold acetonitrile containing a CYP-specific stable labeled internal standard (250 ng/mL acetaminophen-d4, 250 ng/mL hydroxybupropion-d6, or 250 ng/mL hydroxytestosterone-d3). After removal of the aliquots from the plate for enzyme activity determination, the assay plates were sealed and stored in a −70 °C freezer until use for RT-PCR, mRNA analysis.
For the induction assay samples, an aliquot (50 µL) of the supernatant was transferred to a new plate and diluted with 100 µL Milli-Q water. For the test article stability samples, an aliquot (50 µL) of the supernatant was transferred to a new plate and diluted with 60 µL 0.1% formic acid in Milli-Q water. These samples for the enzyme activity assay and article stability test were refrigerated for storage until analysis. […]
HM1010: Induction Potential of Cytochrome P450 Enzymes
(CYP1A2, CYP2B6 and CYP3A4) Using Human Cryopreserved Hepatocytes
Testing Facility Study No.
The purpose of this in-vitro study was to determine the induction potential of HM1010 on human
cytochrome P450 (CYP) isoenzyme (1A2, 2B6 and 3A4) activity. The study design is
Matrix: Inducible cryopreserved human hepatocytes three single-donor lots
Assay Buffer: InVitroGRO KHB
Substrates: Phenacetin (1A2), Bu propion (2B6), and Testosterone (3A4)
Assay conditions: 48 hours at 37°C in humidified 5% carbon dioxide incubator
Analysis: LC-MS/MS (enzyme activity) and mRNA analysis

[6] = CYP450 time-dependent inhibition, all isoenzymes together; type: in vitro ADME, human; settings: all isoenzymes; +/− NADPH, with and without 30-min preincubation; read-out: Inhibition of CYP450 isoenzymes at 50 µM (maximum test concentration)
[7] = system: CYP450 isoenzymes (1A2, 2B6, 2C8, 2C9, 2C19, 2D6 and 3A4); test: as above; type: in vitro ADME, human
[8] = Protein binding in Sprague-Dawley rat plasma (ultracentrifugation); settings: Sprague-Dawley, rat, plasma (K2EDTA), pH 7.4
[9] = system: Sprague-Dawley rat plasma proteins; test: as above; settings: Sprague-Dawley rat plasma (K2EDTA), 2 μM
[10] = read-out: CLint (L/hr/kg) (converted)

Chain of CYP3A4 (P08684 whole entry): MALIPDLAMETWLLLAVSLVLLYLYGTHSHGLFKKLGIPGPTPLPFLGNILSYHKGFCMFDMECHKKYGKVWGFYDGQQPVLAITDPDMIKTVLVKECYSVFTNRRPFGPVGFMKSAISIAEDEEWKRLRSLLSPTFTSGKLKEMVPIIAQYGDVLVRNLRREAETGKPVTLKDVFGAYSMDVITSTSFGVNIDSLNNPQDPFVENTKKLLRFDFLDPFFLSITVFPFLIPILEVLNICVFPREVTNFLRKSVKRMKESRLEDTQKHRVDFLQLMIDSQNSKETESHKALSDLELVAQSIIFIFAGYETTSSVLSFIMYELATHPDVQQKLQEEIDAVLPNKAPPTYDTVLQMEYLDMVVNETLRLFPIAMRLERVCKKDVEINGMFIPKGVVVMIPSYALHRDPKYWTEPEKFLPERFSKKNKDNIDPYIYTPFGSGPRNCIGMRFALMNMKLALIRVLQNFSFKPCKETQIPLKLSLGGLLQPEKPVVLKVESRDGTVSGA

half-life at 2 µM ([1]; Acidic (pH 1.3)): > 120 min
remaining at 1 h, 2 µM ([1]; Acidic (pH 1.3)): 156%
half-life at 2 µM ([1]; Physiological pH (pH 7.4)): 433 min
remaining at 1 h, 2 µM ([1]; Physiological pH (pH 7.4)): 81.4%
half-life at 2 µM ([1]; Slightly Acidic (pH 5.5)): > 120 min
remaining at 1 h, 2 µM ([1]; Slightly Acidic (pH 5.5)): 136%
half-life at 2 µM ([2]; pooled liver microsomes, pH 7.4, Sprague-Dawley rat liver microsomes 0.5 mg protein/mL): 27.7 min
remaining at 2 h, 2 µM ([2]; pooled liver microsomes, pH 7.4, Sprague-Dawley rat liver microsomes 0.5 mg protein/mL, read-out: % Remaining at 120 min): 3.7%
CLint scaled [2, 10]: 6.09 L/h/kg
CLint scaled ([2]; read-out: CLint (mL/min/kg)): 6.06 L/h/kg
CLint scaled [3, 10]: 2.83 L/h/kg
CLint scaled ([3]; read-out: CLint (mL/min/kg)): 2.83 L/h/kg
half-life at 2 µM ([3]; pooled liver microsomes, pH 7.4, Beagle dog liver microsomes 0.5 mg protein/mL): 33 min
remaining at 2 h, 2 µM ([3]; pooled liver microsomes, pH 7.4, Beagle dog liver microsomes 0.5 mg protein/mL, read-out: % Remaining at 120 min): 1.5%
CLint scaled [4, 10]: 5.15 L/h/kg
CLint scaled ([4]; read-out: CLint (mL/min/kg)): 5.15 L/h/kg
half-life at 2 µM ([4]; pooled liver microsomes, pH 7.4, Cynomolgus monkey liver microsomes 0.5 mg protein/mL): 21.8 min
remaining at 2 h, 2 µM ([4]; pooled liver microsomes, pH 7.4, Cynomolgus monkey liver microsomes 0.5 mg protein/mL, read-out: % Remaining at 120 min): 0.8%
% Remaining at 30 min ([5]; 2 μM): 2.5%
half-life at 2 µM ([5]; cryopreserved hepatocytes): 5.28 min
remaining at 0.5 h, 2 µM ([5]; human, cryopreserved hepatocytes, read-out: % Remaining at 30 min): 2.47%
CLint scaled ([5]; human, 2 μM, read-out: CLint (L/hr/kg) (converted)): 42.5 L/h/kg
CLint scaled ([5]; human, 2 μM, read-out: CLint (mL/min/kg)): 42.5 L/h/kg
% Inhibition at 50 µM No PI + NADPH (CYP3A4; Midazolam (3A4)): 6.6%
% Inhibition at 50 µM No PI − NADPH (CYP3A4; Midazolam (3A4)): 19.2%
% Inhibition at 50 µM PI + NADPH (CYP3A4; Midazolam (3A4)): 13.9%
% Inhibition at 50 µM PI − NADPH (CYP3A4; Midazolam (3A4)): 29.5%
% Inhibition at 50 µM No PI + NADPH (CYP3A4; Testosterone (3A4)): 6.9%
% Inhibition at 50 µM No PI − NADPH (CYP3A4; Testosterone (3A4)): −0.7%
% Inhibition at 50 µM PI + NADPH (CYP3A4; Testosterone (3A4)): 11.3%
% Inhibition at 50 µM PI − NADPH (CYP3A4; Testosterone (3A4)): 32.2%
Fold Increase (Enzyme Activity) Lot HH1086 (CYP2B6; 2 µM): 3.18 fold
Fold Increase (Enzyme Activity) Lot HH1142 (CYP2B6; 2 µM): 2.82 fold
Fold Increase (Enzyme Activity) Lot HH1144 (CYP2B6; 2 µM): 3.00 fold
Fold Increase (Enzyme Activity) Mean (CYP2B6; 2 µM): 3.00 fold
Fold Increase (Enzyme Activity) Lot HH1086 (CYP2B6; 10 µM): 4.01 fold
Fold Increase (Enzyme Activity) Lot HH1142 (CYP2B6; 10 µM): 6.36 fold
Fold Increase (Enzyme Activity) Lot HH1144 (CYP2B6; 10 µM): 4.52 fold
Fold Increase (Enzyme Activity) Mean (CYP2B6; 10 µM): 4.96 fold
Fold Increase (Enzyme Activity) Lot HH1086 (CYP2B6; 25 µM): 2.80 fold
Fold Increase (Enzyme Activity) Lot HH1142 (CYP2B6; 25 µM): 9.29 fold
Fold Increase (Enzyme Activity) Lot HH1144 (CYP2B6; 25 µM): 6.73 fold
Fold Increase (Enzyme Activity) Mean (CYP2B6; 25 µM): 6.27 fold
inhibition at 50 µM [6]: -26.4 to 42.2%
Inhibition of CYP450 isoenzymes at 50 µM (maximum test concentration) ([7]; all isoenzymes, +/− NADPH, with and without 30-min preincubation): No inhibition to minimal inhibition
Inhibition of CYP isozymes at 50 µM with pre-incubation in the presence of 1 mM NADPH ([7]; all isozymes, pooled human liver microsomes 0.1 mg/mL): less than 30%
Time-dependent inhibition (TDI) of CYP450 isoenzymes ([7]; up to 50 µM, all isoenzymes): no TDI
fraction unbound at 2.5 h, 2 µM [8]: 0.672 ± 0.094
% Stability in Matrix (2.5 h) ([9]; 37 °C): 36.6%
% Protein Bound Mean ± SD ([9]; 2.5 h at 37 °C): 32.8 ± 9.4%
% Protein Free Mean ± SD ([9]; 2.5 h at 37 °C): 67.2 ± 9.4%
Sequence: LRKLRKRLLRLVGRQLEEFL [HM-10/10, LRKLRKRLLRLVGRQLEEFL]
